Test results taken from patent US7696221B2, “Thienoisoquinoline-phenylsulfonamides and their use as ER-NFκB inhibitors” (Wyeth LLC, priority 2004, dated 2010).

Key:
creatine kinase = assay: Creatine kinase assay in Ad5-wt-ER infected HAECT-1 cells; type: cell-based, human; settings: for EC50: Homo sapiens, HAECT1, N/O = activity not observed at doses tested, read-out: ER/CK EC50; for ER/CK % Eff*: relative to the maximal stimulation observed with E2; for ER/CK EC50: N/O = activity not observed at doses tested
Method: (§1) After four hours, cells were washed with EBM-BSA and incubated overnight in the same medium. […] After two hours, cells were washed and incubated at 34° C. for 1 hour. Cells were then washed, trypsinized, counted and resuspended in 95% FBS/5% dimethylsulfoxide at a concentration of 4×10^6 cells/ml, frozen as 1 or 5 ml aliquots in cryo-vials and stored at −150° C. Control (no ER infection) cells were processed as above without Ad5-wt-hER virus infection. […] Cells were subsequently washed with 300 l of Dulbecco's phosphate buffered saline and lysed in 50 l of Cell Culture Lysis Reagent (Promega). Luciferase was determined on a Wallac Victor^2 Luminometer (Gaithersburg, Md.) using 10 l of lysate and mixing with 100 l of Promega Luciferase Assay reagent. Creatine kinase was determined from the rate of increase in A340 following addition of 100 l of CK assay reagent (Sigma, cat. […] For IC50 and EC50 calculations, mean IL-6, luciferase or CK values versus log10 of the compound concentration were fitted to a four parameter logistic equation. The IC50/EC50 value, ‘Hill slope’, upper and lower limits of the curve were iteratively estimated.

IL-6 = IL-6 assay (ELISA) in Ad5-wt-ER infected HAECT-1 cells; type: cell-based, human; settings: for IC50: IL-1 treated; for ER/IL-6 % Eff: relative to the maximal inhibition observed with E2
Method: as §1

NF-κB = assay: NFκB-luciferase assay in Ad5-wt-ER infected HAECT-1 cells; type: cell-based, human; settings: for IC50: IL-1 treated, read-out: ER/NF-KB-luc IC50; for ER/NF-KB-luc % Eff*: relative to the maximal inhibition observed with E2
Method: T-175 flasks of 100% confluent HAECT-1 cells (immortalized human aortic endothelial cells) were washed with 8 ml of HBSS (HEPES buffered saline solution) and infected for four hours with 6 ml of a 1:10 dilution of Ad5-wt-hER virus (an adenovirus transfection vector that mediates CMV promoter driven expression of human ER) in phenol red free Endothelial Cell Basal medium (Clonetics, San Diego Calif., Catalog # CC-3129) containing 0.25% bovine serum albumin (EBM-BSA). After four hours, cells were washed with EBM-BSA and incubated overnight in the same medium. Following overnight incubation, cells were washed with EBM-BSA and infected for 2 hours with 6 ml of a 1:10 dilution of Ad5-3×(NF B).Luc virus (Adenovirus luciferase expression vector driven by 3 repeats of the MHC NF b site 5′ to the thymidine kinase promoter) in EBM-BSA. After two hours, cells were washed and incubated at 34° C. for 1 hour. Cells were then washed, trypsinized, counted and resuspended in 95% FBS/5% dimethylsulfoxide at a concentration of 4×10^6 cells/ml, frozen as 1 or 5 ml aliquots in cryo-vials and stored at −150° C. Control (no ER infection) cells were processed as above without Ad5-wt-hER virus infection.
ER infected HAECT-1 cells or control cells were thawed, diluted 42× in warm EBM-BSA, plated into 96-well plates at 0.1 ml/well and incubated for 4 h at 34° C. Test compounds were added to the cells as 2× stocks in EBM-BSA containing 2 ng/ml IL-1 (R&D Systems) and plates were returned to the incubator (34° C.). After 15-20 h, 100 l aliquots of media were removed from the cells and assayed for IL-6 content using a BioSource human IL-6 ELISA Kit. Cells were subsequently washed with 300 l of Dulbecco's phosphate buffered saline and lysed in 50 l of Cell Culture Lysis Reagent (Promega). Luciferase was determined on a Wallac Victor^2 Luminometer (Gaithersburg, Md.) using 10 l of lysate and mixing with 100 l of Promega Luciferase Assay reagent. Creatine kinase was determined from the rate of increase in A340 following addition of 100 l of CK assay reagent (Sigma, cat. No 47-10) to the remainder of the cell lysate.
For IC50 and EC50 calculations, mean IL-6, luciferase or CK values versus log10 of the compound concentration were fitted to a four parameter logistic equation. The IC50/EC50 value, ‘Hill slope’, upper and lower limits of the curve were iteratively estimated.

[1] = Ad5-wt-ER infected HAECT-1 cells
[2] = Homo sapiens, HAECT1, Ad5-wt-ER infected HAECT-1 cells

EC50 (creatine kinase)	melting point	IC50 (IL-6; [2])	SMILES	ER/CK % Eff* (creatine kinase)	IC50 (IL-6; [1])	ER/IL-6 % Eff (IL-6; [1])	ER/CK EC50 (creatine kinase)	IC50 (NF-κB)	ER/NF-KB-luc % Eff* (NF-κB)
5.8 nM	–	–	C[C@]12CC[C@@H]3c4ccc(O)cc4CC[C@H]3[C@@H]1CC[C@@H]2O [Example E2, 17β-estradiol, reference compound]	100%	1.7 nM	100%	–	–	–
–	209 to 211 °C	28.2 nM	CC1c2ccccc2-c2sc(Br)cc2N1S(=O)(=O)c1ccc(O)cc1 (stereo not drawn) [Example 6, 4-[(2-Bromo-5-methylthieno[3,2-c]isoquinolin-4(5H)-yl)sulfonyl]phenol]	–	–	162%	N/O	–	–
–	195 to 196 °C	–	CCC1c2ccccc2-c2sc(-c3ccsc3)cc2N1S(=O)(=O)c1ccc(O)cc1 (stereo not drawn) [Example 10, 4-[(5-Ethyl-2-thien-3-ylthieno[3,2-c]isoquinolin-4(5H)-yl)sulfonyl]phenol]	–	–	–	–	–	–
–	169 to 171 °C	21.3 nM	CCC1c2ccccc2-c2sccc2N1S(=O)(=O)c1ccc(O)cc1 (stereo not drawn) [Example 5, 4-[(5-Ethylthieno[3,2-c]isoquinolin-4(5H)-yl)sulfonyl]phenol]	–	–	174%	N/O	–	–
–	–	–	C[C@H]1c2ccccc2-c2sc(Br)cc2N1S(=O)(=O)c1ccc(O)cc1 [Example 8, 4-{[(5S)-2-bromo-5-methylthieno[3,2-c]isoquinolin-4-(5H)-yl]sulfonyl}phenol]	–	8.9 nM	164%	N/O	19 nM	92%
15 nM	–	24.6 nM	CCC1c2ccccc2-c2sc(-c3ccccc3)cc2N1S(=O)(=O)c1ccc(O)cc1 (stereo not drawn) [Example 11, 4-[(5-Ethyl-2-phenylthieno[3,2-c]isoquinolin-4(5H)-yl)sulfonyl]phenol]	63%	–	132%	–	–	–
–	119 to 122 °C	–	CCc1cc2c(s1)-c1ccccc1C(CC)N2S(=O)(=O)c1ccc(O)cc1 (stereo not drawn)	–	–	–	–	–	–
100 nM	163 to 165 °C	66.8 nM	CC1c2ccccc2-c2sccc2N1S(=O)(=O)c1ccc(O)cc1 (stereo not drawn) [Example 4, 4-[(5-Methylthieno[3,2-c]isoquinolin-4(5H)-yl)sulfonyl]phenol]	42%	–	172%	–	–	–
47 nM	183 to 185 °C	7.7 nM	CCC1c2ccccc2-c2sc(Br)cc2N1S(=O)(=O)c1ccc(O)cc1 (stereo not drawn) [Example 9, 4-[(2-Bromo-5-ethylthieno[3,2-c]isoquinolin-4(5H)-yl)sulfonyl]phenol]	33%	–	194%	–	–	–
1540 nM	–	1480 nM	CC1c2ccccc2-c2sc(Br)cc2N1S(=O)(=O)c1ccc(O)c(Br)c1 (stereo not drawn) [Example 12, 2-Bromo-4-[(2-bromo-5-methylthieno[3,2-c]isoquinolin-4(5H)-yl)sulfonyl]phenol]	35%	–	197%	–	–	–
–	–	–	C[C@@H]1c2ccccc2-c2sc(Br)cc2N1S(=O)(=O)c1ccc(O)cc1 [Example 7, 4-{[(5R)-2-bromo-5-methylthieno[3,2-c]isoquinolin-4-(5H)-yl]sulfonyl}phenol]	–	5820 nM	161%	N/O	1450 nM	84%
